In US20250171461A1, “STIMULATOR OF INTERFERON GENES (STING) MODULATORS, AND COMPOSITIONS AND METHODS THEREOF” (Geode Therapeutics Inc., priority 2022, published 2025):

The compounds below were run against T1, human HAQ STING isoform (hSTING HAQ) (Homo sapiens, UniProt Q86WV6, G230A/H232R/R293Q/R71H) (assay: IFN-β mRNA level in THP1 cells (qPCR, STING agonist cellular activity)). Details: compound at 3.6 μM, 2 hrs, IFNβ expression normalized against GAPDH by the 2^-ΔΔCT method, DMSO = 1.0.
T1 construct: THP1 cells express the naturally occurring human HAQ STING isoform (hSTING HAQ); host or cells: THP1
Type: cell-based
Method: Cellular activity of STING agonists was determined by mRNA levels of IFN-β in THP1 (Otwo Biotech HTX1621) cell line. THP1 cells express the naturally occurring human HAQ STING isoform (hSTING HAQ), which responses to the activation of STING agonists.
THP1 cells were seeded into Falcon 12-well cell Culture Plate (Corning #353043) at 9×10^5 cells per well, in 1 ml complete culture medium (RPMI-1640, GIBCO #C1187500BT) containing 10% heat inactivated FBS (GIBCO #10099141C), 1% Pen-Strep (HyClone SV30010) and incubated at 37° ΔC, 5% CO2 overnight. On day 2, compound (final concentration at 3.6 μM) or DMSO (0.1%, Sigma Aldrich #8418) was added to THP1 cells and further incubated for 2 hrs min at 37° ΔC, 5% CO2. Cells were then collected for RNA extraction.
Total RNA was extracted with TRIzol reagent (Invitrogen #15596026) and […] was used to synthesize first-strand cDNA with Maxima First Strand cDNA Synthesis Kit (TAKARA #RR036A). Quantitative PCR was performed with Maxima SYBR Green qPCR Master Mix (ABI #4367659, USA). The primer sequences used were as follows: GAPDH (5′-[…]-3′, 5′-[…]-3′). INFP3 (5′-[…]-3′,5′-[…]-3′) Real-time PCR was performed on QuantStudio™ 5 Real-Time PCR System (Thermo Fisher). Relative expression levels of IFNβ gene were normalized against the level of GAPDH expression by the 2^−ΔΔCT method. Each PCR reaction was performed in triplicates.

T1 sequence (Q86WV6 whole entry R71H/G230A/H232R/R293Q, canonical isoform): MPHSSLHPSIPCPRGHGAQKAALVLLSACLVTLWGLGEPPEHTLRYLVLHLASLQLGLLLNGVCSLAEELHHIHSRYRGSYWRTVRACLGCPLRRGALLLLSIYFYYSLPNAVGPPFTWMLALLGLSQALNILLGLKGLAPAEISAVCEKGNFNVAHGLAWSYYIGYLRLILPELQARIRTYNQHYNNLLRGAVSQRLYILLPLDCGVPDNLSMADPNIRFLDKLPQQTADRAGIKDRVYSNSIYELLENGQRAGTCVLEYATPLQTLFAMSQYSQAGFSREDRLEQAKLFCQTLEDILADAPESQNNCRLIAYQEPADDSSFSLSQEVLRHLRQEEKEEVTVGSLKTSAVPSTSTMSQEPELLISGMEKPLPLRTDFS

| Relative mRNA INFβ/GAPDH THP 1 | SMILES |
| --- | --- |
| 986.1 | COc1cc(CN(Cc2cn3c4c(c(N5CC6(COC6)C5)c(F)cc4c2=O)OCC3C)[C@H]2CCCN(c3ccc(N)nc3)C2)ccn1 (stereo partly drawn) [Compound 30, 6-((((S)-1-(6-aminopyridin-3-yl)piperidin-3-yl)((2-methoxypyridin-4-yl)methyl)amino)methyl)-9-fluoro-3-methyl-10-(2-oxa-6-azaspiro[3.3]heptan-6-yl)-2H-[1,4]oxazino[2,3,4-ij]quinolin-7(3H)-one] |
| 1162.4 | COc1cc(CN(Cc2cn3c4c(c(N5CCC(O)CC5)c(F)cc4c2=O)OCC3C)[C@H]2CCCN(c3ccc(N)nc3)C2)ccn1 (stereo partly drawn) [Compound 31, 6-((((S)-1-(6-aminopyridin-3-yl)piperidin-3-yl)((2-methoxypyridin-4-yl)methyl)amino)methyl)-9-fluoro-10-(4-hydroxypiperidin-1-yl)-3-methyl-2H-[1,4]oxazino[2,3,4-ij]quinolin-7(3H)-one] |
| 814.9 | COc1cc(CN(Cc2cn3c4c(c(N5CCN(C)C(C)C5)c(F)cc4c2=O)OCC3C)[C@H]2CCCN(c3ccc(N)nc3)C2)ccn1 (stereo partly drawn) [Compound 32, 6-((((S)-1-(6-aminopyridin-3-yl)piperidin-3-yl)((2-methoxypyridin-4-yl)methyl)amino)methyl)-10-(3,4-dimethylpiperazin-1-yl)-9-fluoro-3-methyl-2H-[1,4]oxazino[2,3,4-ij]quinolin-7(3H)-one] |
| 849.2 | COc1cc(CN(Cc2cn3c4c(c(N5CCc6ccccc6C5)c(F)cc4c2=O)OCC3C)[C@H]2CCCN(c3ccc(N)nc3)C2)ccn1 (stereo partly drawn) [Compound 33, 6-((((S)-1-(6-aminopyridin-3-yl)piperidin-3-yl)((2-methoxypyridin-4-yl)methyl)amino)methyl)-10-(3,4-dihydroisoquinolin-2(1H)-yl)-9-fluoro-3-methyl-2H-[1,4]oxazino[2,3,4-ij]quinolin-7(3H)-one] |
| 54.8 | COc1cc(CN(Cc2cn3c4c(c(N5CCC(N)C5)c(F)cc4c2=O)OCC3C)[C@H]2CCCN(c3ccc(N)nc3)C2)ccn1.Cl (stereo partly drawn) [Compound 34, 6-((((S)-1-(6-aminopyridin-3-yl)piperidin-3-yl)((2-methoxypyridin-4-yl)methyl)amino)methyl)-10-(3-aminopyrrolidin-1-yl)-9-fluoro-3-methyl-2H-[1,4]oxazino[2,3,4-ij]quinolin-7(3H)-one Hydrochloride] |
| 3791.8 | COc1cc(CN(Cc2cn3c4c(c(N5C[C@@H](C)N[C@@H](C)C5)c(F)cc4c2=O)OCC3C)[C@H]2CCCN(c3ccc(N)nc3)C2)ccn1 (stereo partly drawn) [Compound 35, 6-((((S)-1-(6-aminopyridin-3-yl)piperidin-3-yl)((2-methoxypyridin-4-yl)methyl)amino)methyl)-10-((3S,5R)-3,5-dimethylpiperazin-1-yl)-9-fluoro-3-methyl-2H-[1,4]oxazino[2,3,4-ij]quinolin-7(3H)-one] |
| 9395.6 | COc1cc(CN(Cc2cn3c4c(c(N5CCC(N6CCOCC6)CC5)c(F)cc4c2=O)OCC3C)[C@H]2CCCN(c3ccc(N)nc3)C2)ccn1 (stereo partly drawn) [Compound 36, 6-((((S)-1-(6-aminopyridin-3-yl)piperidin-3-yl)((2-methoxypyridin-4-yl)methyl)amino)methyl)-9-fluoro-3-methyl-10-(4-morpholinopiperidin-1-yl)-2H-[1,4]oxazino[2,3,4-ij]quinolin-7(3H)-one] |
| 6829.2 | COc1cc(CN(Cc2cn3c4c(c(N5CCCCC5C)c(F)cc4c2=O)OCC3C)[C@H]2CCCN(c3ccc(N)nc3)C2)ccn1 (stereo partly drawn) [Compound 37, 6-((((S)-1-(6-aminopyridin-3-yl)piperidin-3-yl)((2-methoxypyridin-4-yl)methyl)amino)methyl)-9-fluoro-3-methyl-10-(2-methylpiperidin-1-yl)-2H-[1,4]oxazino[2,3,4-ij]quinolin-7(3H)-one] |
| 672.0 | COc1cc(CN(Cc2cn3c4c(c(N5CC(O)C5)c(F)cc4c2=O)OCC3C)[C@H]2CCCN(c3ccc(N)nc3)C2)ccn1 (stereo partly drawn) [Compound 38, 6-((((S)-1-(6-aminopyridin-3-yl)piperidin-3-yl)((2-methoxypyridin-4-yl)methyl)amino)methyl)-9-fluoro-10-(3-hydroxyazetidin-1-yl)-3-methyl-2H-[1,4]oxazino[2,3,4-ij]quinolin-7(3H)-one] |
| 81.3 | COc1cc(CN(Cc2cn3c4c(c(N5CCNCC5)c(F)cc4c2=O)OCC3C)[C@H]2CCCN(c3ccc(N)nc3)C2)ccn1 (stereo partly drawn) [Compound 39, 6-((((S)-1-(6-aminopyridin-3-yl)piperidin-3-yl)((2-methoxypyridin-4-yl)methyl)amino)methyl)-9-fluoro-3-methyl-10-(piperazin-1-yl)-2H-[1,4]oxazino[2,3,4-ij]quinolin-7(3H)-one] |
| 352.8 | COc1cc(CN(Cc2cn3c4c(c(N5CCNC(C)C5)c(F)cc4c2=O)OCC3C)[C@H]2CCCN(c3ccc(N)nc3)C2)ccn1 (stereo partly drawn) [Compound 40, 6-((((S)-1-(6-aminopyridin-3-yl)piperidin-3-yl)((2-methoxypyridin-4-yl)methyl)amino)methyl)-9-fluoro-3-methyl-10-(3-methylpiperazin-1-yl)-2H-[1,4]oxazino[2,3,4-ij]quinolin-7(3H)-one] |
| 1.2 | COc1cc(CN(Cc2cn3c4c(c(N5CCNCC5C)c(F)cc4c2=O)OCC3C)[C@H]2CCCN(c3ccc(N)nc3)C2)ccn1 (stereo partly drawn) [Compound 41, 6-((((S)-1-(6-aminopyridin-3-yl)piperidin-3-yl)((2-methoxypyridin-4-yl)methyl)amino)methyl)-9-fluoro-3-methyl-10-(2-methylpiperazin-1-yl)-2H-[1,4]oxazino[2,3,4-ij]quinolin-7(3H)-one] |
| 12.1 | CNC1CCCN(c2c(F)cc3c(=O)c(CN(Cc4ccnc(OC)c4)[C@H]4CCCN(c5ccc(N)nc5)C4)cn4c3c2OCC4C)C1.Cl (stereo partly drawn) [Compound 42, 6-((((S)-1-(6-aminopyridin-3-yl)piperidin-3-yl)((2-methoxypyridin-4-yl)methyl)amino)methyl)-9-fluoro-3-methyl-10-(3-(methylamino)piperidin-1-yl)-2H-[1,4]oxazino[2,3,4-ij]quinolin-7(3H)-one Hydrochloride] |
| 1.2 | COc1cc(CN(Cc2cn3c4c(c(N(C)C5CCCNC5)c(F)cc4c2=O)OCC3C)[C@H]2CCCN(c3ccc(N)nc3)C2)ccn1.Cl (stereo partly drawn) [Compound 43, 6-((((S)-1-(6-aminopyridin-3-yl)piperidin-3-yl)((2-methoxypyridin-4-yl)methyl)amino)methyl)-9-fluoro-3-methyl-10-(methyl(piperidin-3-yl)amino)-2H-[1,4]oxazino[2,3,4-ij]quinolin-7(3H)-one Hydrochloride] |
| 642.4 | COc1cc(CN(Cc2cn3c4c(c(N5CCC6(CC5)CC(O)CO6)c(F)cc4c2=O)OCC3C)[C@H]2CCCN(c3ccc(N)nc3)C2)ccn1 (stereo partly drawn) [Compound 44, 6-((((S)-1-(6-aminopyridin-3-yl)piperidin-3-yl)((2-methoxypyridin-4-yl)methyl)amino)methyl)-9-fluoro-10-(3-hydroxy-1-oxa-8-azaspiro[4.5]decan-8-yl)-3-methyl-2H-[1,4]oxazino[2,3,4-ij]quinolin-7(3H)-one] |
